US20230167070A1, “MODULATORS OF TREX1” (Constellation Pharmaceuticals, Inc., priority 2020, published 2023)
pIC50: −log10 of the molar value.

Legend:
full length human TREX1 = target: T1, full length human TREX1 (Homo sapiens, UniProt Q9NSU2); experiment: TREX1 Biochemical Assay (fluorescence, dsDNA substrate degradation); conditions: 150 pM TREX1, 60 nM dsDNA substrate, 25 minutes at room temperature
T1 construct: N-terminally His-Tev tagged full length human TREX1; made in house; host or cells: E. coli
T1 sequence (Q9NSU2 1-314): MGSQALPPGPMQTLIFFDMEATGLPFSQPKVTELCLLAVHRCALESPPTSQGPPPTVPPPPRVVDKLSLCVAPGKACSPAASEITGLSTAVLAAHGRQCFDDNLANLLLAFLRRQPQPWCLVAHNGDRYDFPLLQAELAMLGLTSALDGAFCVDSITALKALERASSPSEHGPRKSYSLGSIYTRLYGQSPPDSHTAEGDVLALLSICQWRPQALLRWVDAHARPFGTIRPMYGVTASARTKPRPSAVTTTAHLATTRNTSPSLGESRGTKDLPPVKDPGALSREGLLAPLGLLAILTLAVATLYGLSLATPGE
Experimental: Degradation of the dsDNA liberates free fluorophore to produce a fluorescent signal. Specifically, 7.5 μL of N-terminally His-Tev tagged full length human TREX1 (expressed in E. coli and purified in house) in reaction buffer (50 mM Tris (pH 7.4), 150 mM NaCl, 2 mM DTT, 0.1 mg/mL BSA, 0.01% (v/v) Tween-20 and 100 mM MgCl2) was added to a 384-well Black ProxiPlate Plus (Perkin Elmer) which already contained compound (150 nL) at varying concentrations as a 10 point dose-response in DMSO. To this was added 7.5 μL of dsDNA substrate (Strand A: 5′ TEX615/GCT AGG CAG 3′; Strand B: 5′ CTG CCT AGC/IAbRQSp (Integrated DNA Technologies)) in reaction buffer. Final concentrations were 150 pM TREX1, 60 nM dsDNA substrate in reaction buffer with 1.0% DMSO (v/v). After 25 minutes at room temperature, reactions were quenched by the addition of 5 μL of stop buffer (same as reaction buffer plus 200 mM EDTA). Final concentrations in the quenched reaction were 112.5 pM TREX1, 45 nM DNA and 50 mM EDTA in a volume of 20 μL. After a 5-minute incubation at room temperature, plates were read in a laser sourced Envision (Perkin-Elmer), measuring fluorescence at 615 nm following excitation w/570 nm light. IC50 values were calculated by comparing the measured fluorescence at 615 nm ratio relative to control wells pre-quenched w/stop buffer (100% inhibition) and no inhibitor (0% inhibition) controls as using non-linear least square four parameter fits and either Genedata or GraphPad Prism (GraphPad Software, Inc.).

[1] = target: T2, human TREX2 (residues M44-A279) (Homo sapiens, UniProt Q9BQ50); experiment: TREX2 Biochemical Assay (fluorescence, dsDNA substrate degradation); conditions: 2.5 nM TREX2, 60 nM dsDNA substrate, 25 minutes at room temperature
T2 construct: human TREX2 (residues M44-A279, expressed in E. coli); made in house; host or cells: E. coli
T2 sequence (Q9BQ50 44-279 isoform Q9BQ50-1): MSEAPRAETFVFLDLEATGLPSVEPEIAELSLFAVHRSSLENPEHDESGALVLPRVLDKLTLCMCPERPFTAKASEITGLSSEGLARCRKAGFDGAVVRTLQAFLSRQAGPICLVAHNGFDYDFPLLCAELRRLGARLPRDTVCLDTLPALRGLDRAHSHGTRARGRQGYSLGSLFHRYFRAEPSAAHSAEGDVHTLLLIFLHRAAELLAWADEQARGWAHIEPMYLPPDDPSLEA
Experimental: Degradation of the dsDNA liberates free fluorophore to produce a fluorescent signal. Specifically, 7.5 μL of N-terminally His-Tev tagged human TREX2 (residues M44-A279, expressed in E. coli and purified in house) in reaction buffer (50 mM Tris (pH 7.4), 150 mM NaCl, 2 mM DTT, 0.1 mg/mL BSA, 0.01% (v/v) Tween-20 and 100 mM MgCl2) was added to a 384-well Black ProxiPlate Plus (Perkin Elmer) which already contained compound (150 nL) at varying concentrations as a 10 point dose-response in DMSO. To this was added 7.5 μL of dsDNA substrate (Strand A: 5′ TEX615/GCT AGG CAG 3′; Strand B: 5′ CTG CCT AGC/IAbRQSp (IDT)) in reaction buffer. Final concentrations were 2.5 nM TREX2, 60 nM dsDNA substrate in reaction buffer with 1.0% DMSO (v/v). After 25 minutes at room temperature, reactions were quenched by the addition of 5 μL of stop buffer (same as reaction buffer plus 200 mM EDTA). Final concentrations in the quenched reaction mixture were […] TREX2, 45 nM DNA and 50 mM EDTA in a volume of 20 μL. After a 5-minute incubation at room temperature, plates were read in a laser sourced Envision (Perkin-Elmer), measuring fluorescence at 615 nm following excitation w/570 nm light. IC50 values were calculated by comparing the measured fluorescence at 615 nm ratio relative to control wells pre-quenched w/stop buffer (100% inhibition) and no inhibitor (0% inhibition) controls as using non-linear least square four parameter fits and either Genedata or GraphPad Prism (GraphPad Software, Inc.).

Compound	pIC50 (full length human TREX1)	pIC50 [1]
CN(c1nc(C(=O)Nc2ccc(F)cc2)c(O)c(=O)n1C)[C@H](c1ccccc1)c1ccccc1Cl (stereo in doubt) [Example 29, 2-(((2-chlorophenyl)(phenyl)methyl)(methyl)amino)-N-(4-fluorophenyl)-5-hydroxy-1-methyl-6-oxo-1,6-dihydropyrimidine-4-carboxamide]	6.00 to 7.00	> 6.00
CN(c1nc(C(=O)NCC(F)(F)F)c(O)c(=O)n1C)C(c1ccccc1)c1ccccc1 [Example 1, 2-(benzhydryl(methyl)amino)-5-hydroxy-1-methyl-6-oxo-N-(2,2,2-trifluoroethyl)-1,6-dihydropyrimidine-4-carboxamide]	5.00 to 6.00	4.00 to 5.00
CN(c1nc(C(=O)NC2CC(F)(F)C2)c(O)c(=O)n1C)C(c1ccccc1)c1ccccc1 [Example 2, 2-(benzhydryl(methyl)amino)-N-(3,3-difluorocyclobutyl)-5-hydroxy-1-methyl-6-oxo-1,6-dihydropyrimidine-4-carboxamide]	5.00 to 6.00	4.00 to 5.00
CN(c1nc(C(=O)N[C@H]2CCOC2)c(O)c(=O)n1C)C(c1ccccc1)c1ccccc1 [Example 3, (S)-2-(benzhydryl(methyl)amino)-5-hydroxy-1-methyl-6-oxo-N-(tetrahydrofuran-3-yl)-1,6-dihydropyrimidine-4-carboxamide]	< 5.00	4.00 to 5.00
CN(c1nc(C(=O)N[C@@H]2CCOC2)c(O)c(=O)n1C)C(c1ccccc1)c1ccccc1 [Example 4, (R)-2-(benzhydryl(methyl)amino)-5-hydroxy-1-methyl-6-oxo-N-(tetrahydrofuran-3-yl)-1,6-dihydropyrimidine-4-carboxamide]	< 5.00	4.00 to 5.00
C=C(C)CNC(=O)c1nc(N(C)C(c2ccccc2)c2ccccc2)n(C)c(=O)c1O [Example 5, 2-(benzhydryl(methyl)amino)-5-hydroxy-1-methyl-N-(2-methylallyl)-6-oxo-1,6-dihydropyrimidine-4-carboxamide]	5.00 to 6.00	4.00 to 5.00
CN(c1nc(C(=O)NC2CC=CC2)c(O)c(=O)n1C)C(c1ccccc1)c1ccccc1 [Example 6, 2-(benzhydryl(methyl)amino)-N-(cyclopent-3-en-1-yl)-5-hydroxy-1-methyl-6-oxo-1,6-dihydropyrimidine-4-carboxamide]	5.00 to 6.00	4.00 to 5.00
CN(c1nc(C(=O)NC2CCC2)c(O)c(=O)n1C)C(c1ccccc1)c1ccccc1 [Example 7, 2-(benzhydryl(methyl)amino)-N-cyclobutyl-5-hydroxy-1-methyl-6-oxo-1,6-dihydropyrimidine-4-carboxamide]	5.00 to 6.00	4.00 to 5.00
C=CCNC(=O)c1nc(N(C)C(c2ccccc2)c2ccccc2)n(C)c(=O)c1O [Example 8, N-allyl-2-(benzhydryl(methyl)amino)-5-hydroxy-1-methyl-6-oxo-1,6-dihydropyrimidine-4-carboxamide]	5.00 to 6.00	5.00 to 6.00
CN(c1nc(C(=O)NC2COC2)c(O)c(=O)n1C)C(c1ccccc1)c1ccccc1 [Example 9, 2-(benzhydryl(methyl)amino)-5-hydroxy-1-methyl-N-(oxetan-3-yl)-6-oxo-1,6-dihydropyrimidine-4-carboxamide]	< 5.00	4.00 to 5.00
CCNC(=O)c1nc(N(C)C(c2ccccc2)c2ccccc2)n(C)c(=O)c1O [Example 10, 2-(benzhydryl(methyl)amino)-N-ethyl-5-hydroxy-1-methyl-6-oxo-1,6-dihydropyrimidine-4-carboxamide]	5.00 to 6.00	4.00 to 5.00
COCCNC(=O)c1nc(N(C)C(c2ccccc2)c2ccccc2)n(C)c(=O)c1O [Example 11, 2-(benzhydryl(methyl)amino)-5-hydroxy-N-(2-methoxyethyl)-1-methyl-6-oxo-1,6-dihydropyrimidine-4-carboxamide]	< 5.00	4.00 to 5.00
CNC(=O)c1nc(N(C)C(c2ccccc2)c2ccccc2)n(C)c(=O)c1O [Example 12, 2-(benzhydryl(methyl)amino)-5-hydroxy-N,1-dimethyl-6-oxo-1,6-dihydropyrimidine-4-carboxamide]	< 5.00	4.00 to 5.00
CN(c1nc(C(=O)NCCC(F)(F)F)c(O)c(=O)n1C)C(c1ccccc1)c1ccccc1 [Example 13, 2-(benzhydryl(methyl)amino)-5-hydroxy-1-methyl-6-oxo-N-(3,3,3-trifluoropropyl)-1,6-dihydropyrimidine-4-carboxamide]	6.00 to 7.00	4.00 to 5.00
CN(c1nc(C(=O)NCC2CC2)c(O)c(=O)n1C)C(c1ccccc1)c1ccccc1 [Example 14, 2-(benzhydryl(methyl)amino)-N-(cyclopropylmethyl)-5-hydroxy-1-methyl-6-oxo-1,6-dihydropyrimidine-4-carboxamide]	6.00 to 7.00	5.00 to 6.00
CN(c1nc(C(=O)Nc2ccccc2)c(O)c(=O)n1C)C(c1ccccc1)c1ccccc1 [Example 15, 2-(benzhydryl(methyl)amino)-5-hydroxy-1-methyl-6-oxo-N-phenyl-1,6-dihydropyrimidine-4-carboxamide]	> 7.00	> 6.00
CN(c1nc(C(=O)Nc2cccc(F)c2)c(O)c(=O)n1C)C(c1ccccc1)c1ccccc1 [Example 16, 2-(benzhydryl(methyl)amino)-N-(3-fluorophenyl)-5-hydroxy-1-methyl-6-oxo-1,6-dihydropyrimidine-4-carboxamide]	> 7.00	> 6.00
CN(c1nc(C(=O)Nc2ccccc2F)c(O)c(=O)n1C)C(c1ccccc1)c1ccccc1 [Example 17, 2-(benzhydryl(methyl)amino)-N-(2-fluorophenyl)-5-hydroxy-1-methyl-6-oxo-1,6-dihydropyrimidine-4-carboxamide]	> 7.00	> 6.00
CN(c1nc(C(=O)Nc2ccc(F)cc2)c(O)c(=O)n1C)C(c1ccccc1)c1ccccc1 [Example 18, 2-(benzhydryl(methyl)amino)-N-(4-fluorophenyl)-5-hydroxy-1-methyl-6-oxo-1,6-dihydropyrimidine-4-carboxamide]	6.00 to 7.00	> 6.00
CN(c1nc(C(=O)Nc2c(F)cccc2F)c(O)c(=O)n1C)C(c1ccccc1)c1ccccc1 [Example 19, 2-(benzhydryl(methyl)amino)-N-(2,6-difluorophenyl)-5-hydroxy-1-methyl-6-oxo-1,6-dihydropyrimidine-4-carboxamide]	5.00 to 6.00	4.00 to 5.00
CN(c1nc(C(=O)Nc2ccc(F)c(F)c2)c(O)c(=O)n1C)C(c1ccccc1)c1ccccc1 [Example 20, 2-(benzhydryl(methyl)amino)-N-(3,4-difluorophenyl)-5-hydroxy-1-methyl-6-oxo-1,6-dihydropyrimidine-4-carboxamide]	6.00 to 7.00	> 6.00
